This note sets out measurements from paper PMC5065719 (Biochemistry, 2013).

The target of this experiment is IscU (Azotobacter vinelandii, UniProt O31270). In words: UV/Vis absorption and visible CD during in vitro Fe-S cluster assembly. The note with it: anaerobic, IscS, Cys, DTT, cluster assembled in situ. The format is binding.
IscU, sequence (O31270 whole entry): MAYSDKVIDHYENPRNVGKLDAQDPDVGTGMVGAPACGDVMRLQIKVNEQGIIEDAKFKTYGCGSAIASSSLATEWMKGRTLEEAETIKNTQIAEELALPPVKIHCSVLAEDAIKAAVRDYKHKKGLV

With `[S]1[Fe][S][Fe]1` [[2Fe-2S] cluster], the “UV/Vis absorption and visible CD during in vitro Fe-S cluster assembly” value is “shows the formation of the [2Fe-2S] cluster as previously reported for IscU (A)”.
